Measurements published in PubChem BioAssay AID2060500 (Molecular Pharmacology Branch, DTP, NCI, 2025).

Tested on: 596521-263-R-J1-PDC complex spheroids, viability % of control
Experiment: Anticancer human tumor 596521-263-R-J1-PDC patient-derived soft tissue sarcoma cell line growth inhibition [GQUAD]
Settings: for IC50: curve of first compound; for viability, T/C: stronger effect = lower value
From the text: DNA G-quadruplex Stabilizer Agents in Combinations in Complex Spheroids
A high-throughput screen of multi-cell type tumor spheroids was designed to identify active combinations of DNA G-quadruplex stabilizer agents and targeted small molecules. Complex spheroids include a stromal component modeled by human endothelial cells (HUVEC) and fibroblasts modeled by human mesenchymal stem cells (MSCs). The concentration ranges selected for each drug and investigational agent were based upon clinically achievable concentrations if the clinical Cmax of the agent was known.
Compounds. The drugs and investigational agents: pidnarulex (CX-5461; NSC782164), APTO-253 (NSC789042), BRACO-19 (NSC847499), peposertib (NSC802822), ceralasertib (NSC780249), elimusertib (NSC800525), camonsertib (NSC841442), AZD-1390 (NSC803789), olaparib (NSC753686), talazoparib (NSC767125), ART-558 (NSC835418), sotorasib (NSC818433), MRTX-1133 (NSC836407), SN-38 (NSC673596), topotecan (NSC609699), etoposide (NSC141540), doxorubicin (NSC123127), gemcitabine (NSC613327), 5-fluorouracil (NSC19893), paclitaxel (NSC125973), vemurafenib (NSC761431), panobinostat (NSC761190), R-306465 (JNJ-16241199; NSC773264), adavosertib (NSC754352), TP-3654 (NSC805149), carboplatin (NSC241240), KSQ-4279 (NSC840948), and staurosporine (NSC755774) were obtained from the National Cancer Institute (NCI) Developmental Therapeutics Program Chemical Repository (34). The FDA-approved anticancer drug set is available from the NCI Developmental Therapeutics Program. […] The stock solutions were prepared in dimethyl sulfoxide (DMSO, Sigma-Aldrich, St. Louis, MO, cat. D2650) at 800-fold the tested concentration and stored at -70 degrees C prior to their use. All drugs and investigational agents were tested over a range starting from a high concentration at or near the clinical Cmax and decreasing in half-log increments. If the clinical Cmax for an agent had not been determined, the highest concentration tested was 10 microM.
2.3 Cell Culture. All cells were maintained in an incubator at 37 degrees C and 5% CO2 with 95% humidity. The PDC lines were cultured according to standard operating procedures established by the NCI PDMR. All PDCs were thawed and cultured in Matrigel-coated flasks prepared with a working solution of 1X Ham's F-12 nutrient mix, without supplementation (Invitrogen, cat. 11765054), 100 U/mL penicillin-streptomycin (Invitrogen, cat. 15140122), and 2.5% Matrigel (Corning Inc., cat. 354248) for the first three passages. The 857933-349-R-J2-PDC line was cultured in 6C/Colon 1B media, which includes advanced DMEM/F-12 (Thermo Fisher Scientific, cat. 12634028), 10 mM HEPES (Thermo Fisher Scientific, cat. 15630080), 1X GlutaMAX supplement (Thermo Fisher Scientific, cat. 35050061), 0.1 mg/mL primocin (InvivoGen, cat. ant-pm-2), 10% defined fetal bovine serum, heat inactivated (HyClone Laboratories Inc., cat. SH30070.03HI), 50% L-WRN conditioned media (ATCC, cat. CRL-3276), 1.25 mM N-Acetyl-L-cysteine (Sigma-Aldrich, cat. A9165), 10 mM nicotinamide (Sigma-Aldrich, cat. N0636), 1X B-27 supplement (Thermo Fisher Scientific, cat. 17504044), 1X N-2 supplement (Thermo Fisher Scientific, cat. 17502048), 10 microM Y-27632 dihydrochloride (Tocris Bioscience, cat. 1254), and 50 ng/mL human EGF recombinant protein (Thermo Fisher Scientific, cat. PHG0311). The 485176-168-R4-J1-PDC line was cultured in Panc media, which includes all 6C/Colon 1B media components plus 100 ng/mL human FGF-10 (Thermo Fisher Scientific, cat. 100-26), 500 nM SB-431542 (Selleckchem, cat. S1067), and gastrin (Tocris, cat. 3006).
[…]

[1] = second compound 0.0316 µM, first compound 0.0316 µM
[2] = second compound 0.0316 µM, first compound 0.1 µM
[3] = second compound 0.0316 µM, first compound 0.316 µM
[4] = second compound 0.0316 µM, first compound 1 µM
[5] = second compound 0.0316 µM, first compound 3.16 µM
[6] = second compound 0.0316 µM, first compound 10 µM
[7] = second compound 0.1 µM, first compound 0.0316 µM
[8] = second compound 0.1 µM, first compound 0.1 µM
[9] = second compound 0.1 µM, first compound 0.316 µM
[10] = second compound 0.1 µM, first compound 1 µM
[11] = second compound 0.1 µM, first compound 3.16 µM
[12] = second compound 0.1 µM, first compound 10 µM
[13] = second compound 0.316 µM, first compound 0.0316 µM
[14] = second compound 0.316 µM, first compound 0.1 µM
[15] = second compound 0.316 µM, first compound 0.316 µM
[16] = second compound 0.316 µM, first compound 1 µM
[17] = second compound 0.316 µM, first compound 3.16 µM
[18] = second compound 0.316 µM, first compound 10 µM
[19] = second compound 1 µM, first compound 0.0316 µM
[20] = second compound 1 µM, first compound 0.1 µM
[21] = second compound 1 µM, first compound 0.316 µM
[22] = second compound 1 µM, first compound 1 µM
[23] = second compound 1 µM, first compound 3.16 µM
[24] = second compound 1 µM, first compound 10 µM
[25] = second compound 3.16 µM, first compound 0.0316 µM
[26] = second compound 3.16 µM, first compound 0.1 µM
[27] = second compound 3.16 µM, first compound 0.316 µM
[28] = second compound 3.16 µM, first compound 1 µM
[29] = second compound 3.16 µM, first compound 3.16 µM
[30] = second compound 3.16 µM, first compound 10 µM
[31] = second compound 10 µM, first compound 0.0316 µM
[32] = second compound 10 µM, first compound 0.1 µM
[33] = second compound 10 µM, first compound 0.316 µM
[34] = second compound 10 µM, first compound 1 µM
[35] = second compound 10 µM, first compound 3.16 µM
[36] = second compound 10 µM, first compound 10 µM
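Also: spheroids exposed to drugs for 7 days before viability reading.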

CC(=O)O[C@H]1C(=O)[C@@]2(C)[C@H]([C@H](OC(=O)c3ccccc3)[C@]3(O)C[C@H](OC(=O)[C@H](O)[C@@H](NC(=O)c4ccccc4)c4ccccc4)C(C)=C1C3(C)C)[C@]1(OC(C)=O)CO[C@@H]1C[C@@H]2O + Cc1[nH]c2ccc(F)cc2c1-c1nc2c3cccnc3c3ncccc3c2[nH]1
IC50 (second compound 0.0316 µM): 122 nM
IC50 (second compound 0.1 µM): 144 nM
IC50 (second compound 0.316 µM): 173 nM
IC50 (second compound 1 µM): 212 nM
IC50 (second compound 3.16 µM): 204 nM
IC50 (second compound 10 µM): 226 nM
viability, T/C [1]: 90.8%
viability, T/C [2]: 55.8%
viability, T/C [3]: 20.6%
viability, T/C [4]: 0.81%
viability, T/C [5]: 0.38%
viability, T/C [6]: 0.28%
viability, T/C [7]: 96.1%
viability, T/C [8]: 60.2%
viability, T/C [9]: 28.2%
viability, T/C [10]: 0.74%
viability, T/C [11]: 0.23%
viability, T/C [12]: 0.22%
viability, T/C [13]: 107%
viability, T/C [14]: 69.1%
viability, T/C [15]: 30.8%
viability, T/C [16]: 1.26%
viability, T/C [17]: 0.2%
viability, T/C [18]: 1.66%
viability, T/C [19]: 89.1%
viability, T/C [20]: 74.9%
viability, T/C [21]: 37.5%
viability, T/C [22]: 1.83%
viability, T/C [23]: 0.31%
viability, T/C [24]: 0.28%
viability, T/C [25]: 85.4%
viability, T/C [26]: 69%
viability, T/C [27]: 39.2%
viability, T/C [28]: 1.48%
viability, T/C [29]: 0.34%
viability, T/C [30]: 1.18%
viability, T/C [31]: 71.3%
viability, T/C [32]: 65.2%
viability, T/C [33]: 42.9%
viability, T/C [34]: 1.48%
viability, T/C [35]: 0.49%
viability, T/C [36]: 0.31%

COc1cccc2c1C(=O)c1c(O)c3c(c(O)c1C2=O)CC(O)(C(=O)CO)CC3OC1CC(N)C(O)C(C)O1 (stereo unspecified) + Cc1[nH]c2ccc(F)cc2c1-c1nc2c3cccnc3c3ncccc3c2[nH]1
IC50 (second compound 0.0316 µM): 719 nM
IC50 (second compound 0.1 µM): 655 nM
IC50 (second compound 0.316 µM): 802 nM
IC50 (second compound 1 µM): 578 nM
IC50 (second compound 3.16 µM): 965 nM
IC50 (second compound 10 µM): 700 nM
viability, T/C [1]: 98%
viability, T/C [2]: 76.6%
viability, T/C [3]: 64%
viability, T/C [4]: 48.9%
viability, T/C [5]: 26.6%
viability, T/C [6]: 3.55%
viability, T/C [7]: 93.8%
viability, T/C [8]: 77%
viability, T/C [9]: 57.9%
viability, T/C [10]: 44.9%
viability, T/C [11]: 29.7%
viability, T/C [12]: 4.66%
viability, T/C [13]: 112%
viability, T/C [14]: 70.3%
viability, T/C [15]: 68%
viability, T/C [16]: 54.5%
viability, T/C [17]: 27.1%
viability, T/C [18]: 3.9%
viability, T/C [19]: 96.5%
viability, T/C [20]: 66.5%
viability, T/C [21]: 59.2%
viability, T/C [22]: 50.4%
viability, T/C [23]: 25.6%
viability, T/C [24]: 4.37%
viability, T/C [25]: 82.7%
viability, T/C [26]: 68.9%
viability, T/C [27]: 63.2%
viability, T/C [28]: 54.9%
viability, T/C [29]: 25.7%
viability, T/C [30]: 3.86%
viability, T/C [31]: 75.1%
viability, T/C [32]: 62.4%
viability, T/C [33]: 62.6%
viability, T/C [34]: 45.9%
viability, T/C [35]: 25.6%
viability, T/C [36]: 3.33%

Nc1ccn(C2OC(CO)C(O)C2(F)F)c(=O)n1 (stereo unspecified) + Cc1[nH]c2ccc(F)cc2c1-c1nc2c3cccnc3c3ncccc3c2[nH]1
IC50 (second compound 0.0316 µM): 34.7 nM
IC50 (second compound 0.1 µM): 58.1 nM
IC50 (second compound 0.316 µM): < 31.6 nM
IC50 (second compound 1 µM): < 31.6 nM
IC50 (second compound 3.16 µM): 125 nM
IC50 (second compound 10 µM): < 31.6 nM
viability, T/C [1]: 54.6%
viability, T/C [2]: 45.5%
viability, T/C [3]: 38.1%
viability, T/C [4]: 38.7%
viability, T/C [5]: 42.6%
viability, T/C [6]: 32.9%
viability, T/C [7]: 57%
viability, T/C [8]: 47.2%
viability, T/C [9]: 38%
viability, T/C [10]: 47.2%
viability, T/C [11]: 39.2%
viability, T/C [12]: 41.5%
viability, T/C [13]: 57%
viability, T/C [14]: 39%
viability, T/C [15]: 36.4%
viability, T/C [16]: 44.2%
viability, T/C [17]: 45.4%
viability, T/C [18]: 41.1%
viability, T/C [19]: 53.3%
viability, T/C [20]: 38.3%
viability, T/C [21]: 43.6%
viability, T/C [22]: 39.3%
viability, T/C [23]: 40.8%
viability, T/C [24]: 37.9%
viability, T/C [25]: 60.7%
viability, T/C [26]: 49.2%
viability, T/C [27]: 43%
viability, T/C [28]: 42%
viability, T/C [29]: 42.7%
viability, T/C [30]: 30.7%
viability, T/C [31]: 56.7%
viability, T/C [32]: 37.3%
viability, T/C [33]: 38.8%
viability, T/C [34]: 32.7%
viability, T/C [35]: 38.2%
viability, T/C [36]: 36.3%
